Measurements published in patent US10851089B2, “Matrix metalloproteinase (MMP) inhibitors and methods of use thereof” (Foresee Pharmaceuticals Co., Ltd., priority 2018, dated 2020).
Like-named read-outs stand apart in the source and are kept apart here.

Assays:
[1] = target: recombinant human MMP-12 catalytic domain (Homo sapiens (Human), UniProt P39900); test: MMP-12 inhibitory assay (fluorogenic substrate cleavage); type: biochemical
Method: (§1) The inhibitory effect of compounds on the rate of cleaving fluorogenic MMP substrate (Enzo, BML-P128) by recombinant human MMP-12 catalytic domain (Enzo, BML-SE138) was carried out by methods known in the art. Briefly, to each well of a 96-well black opaque plate, all the reagents were sequentially added by pipetting, and the final reaction contained 4 nM of recombinant human MMP-12 catalytic domain, 4 μM of fluorogenic MMP substrate, and various concentrations (0.15 nM to 10,000 nM) of tested compound dilutions in HEPES buffer (pH 7.5) containing 10 mM of CaCl2, 0.01% Brij® 35 (polyoxyethylene (23) lauryl ether), and 0.1 mg/ml of BSA.
(§2) The enzyme and compounds were pre-incubated on a shaker to mix in wells. After an hour of mixing, fluorogenic substrate was added to each well. Reaction without enzyme was used as a blank control in the plate. The plate was then fed into a plate reader to measure fluorescence intensity at Excitation/Emission wavelengths of 340 nm/440 nm every 10 mins for at least 1 hour at 37° C. The IC50 of each compound in MMP-12 inhibition was determined by using a readout obtained at time point 30 minutes.

[2] = target: recombinant human MMP-2 (Homo sapiens (Human), UniProt P08253); test: MMP selectivity assay MMP-2; type: biochemical
recombinant human MMP-2, sequence (P08253 110-660): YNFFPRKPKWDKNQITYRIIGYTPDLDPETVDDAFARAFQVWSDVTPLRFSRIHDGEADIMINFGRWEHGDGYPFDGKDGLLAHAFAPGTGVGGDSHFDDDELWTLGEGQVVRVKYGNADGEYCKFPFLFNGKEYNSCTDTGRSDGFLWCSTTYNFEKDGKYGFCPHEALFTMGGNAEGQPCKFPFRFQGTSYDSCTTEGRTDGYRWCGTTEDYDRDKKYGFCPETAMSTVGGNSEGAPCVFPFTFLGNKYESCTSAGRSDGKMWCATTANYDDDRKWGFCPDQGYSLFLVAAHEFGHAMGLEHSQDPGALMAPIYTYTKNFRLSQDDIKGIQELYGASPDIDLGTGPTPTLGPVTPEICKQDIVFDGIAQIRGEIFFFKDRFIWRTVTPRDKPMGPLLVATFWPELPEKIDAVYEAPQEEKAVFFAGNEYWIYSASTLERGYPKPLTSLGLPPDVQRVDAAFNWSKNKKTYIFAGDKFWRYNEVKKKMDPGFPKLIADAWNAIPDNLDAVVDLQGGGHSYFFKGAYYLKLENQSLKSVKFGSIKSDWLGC
Method: as §1, §2
(§3) The MMP selectivity assay was performed by using other recombinant human MMPs, including MMP-1, MMP-2, MMP-3, MMP-7, MMP-8, MMP-9, MMP-10, MMP-13, and MMP-14. The IC50 of the compounds for the other recombinant human MMPs was determined as described above in Example 1, and are shown in Table 2.

[3] = target: recombinant human MMP-7 (Homo sapiens (Human), UniProt P09237); test: MMP selectivity assay MMP-7; type: biochemical
recombinant human MMP-7, sequence (P09237 95-267): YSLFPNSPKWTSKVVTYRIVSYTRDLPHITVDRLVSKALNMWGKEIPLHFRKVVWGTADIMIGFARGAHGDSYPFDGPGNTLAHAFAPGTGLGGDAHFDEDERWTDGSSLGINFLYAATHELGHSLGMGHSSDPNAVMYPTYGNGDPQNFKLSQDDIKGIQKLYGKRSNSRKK
Method: as §1, §2, §3

[4] = target: recombinant human MMP-8 (Homo sapiens (Human), UniProt P22894); test: MMP selectivity assay MMP-8; type: biochemical
recombinant human MMP-8, sequence (P22894 101-467): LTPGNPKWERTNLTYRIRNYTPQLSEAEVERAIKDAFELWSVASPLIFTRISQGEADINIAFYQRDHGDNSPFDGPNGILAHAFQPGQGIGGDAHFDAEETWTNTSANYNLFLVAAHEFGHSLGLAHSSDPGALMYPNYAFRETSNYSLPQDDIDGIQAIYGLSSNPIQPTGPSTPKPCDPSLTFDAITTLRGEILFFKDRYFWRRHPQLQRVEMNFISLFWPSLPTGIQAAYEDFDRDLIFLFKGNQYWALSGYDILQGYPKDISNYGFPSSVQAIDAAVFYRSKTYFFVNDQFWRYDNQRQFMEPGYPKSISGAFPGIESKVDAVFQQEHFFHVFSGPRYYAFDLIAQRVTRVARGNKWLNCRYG
Method: as §1, §2, §3

[5] = target: recombinant human MMP-13 (Homo sapiens (Human), UniProt P45452); test: MMP selectivity assay MMP-13; type: biochemical
Method: as §1, §2, §3

[6] = target: recombinant human MMP-14 (Homo sapiens (Human), UniProt P50281); test: MMP selectivity assay MMP-14; type: biochemical
Method: as §1, §2, §3

[7] = tested on: UUO-induced renal fibrosis; test: SD rat kidney fibrosis model by unilateral ureteral occlusion (UUO); type: in vivo, Sprague Dawley rat
Method: This study was to evaluate the therapeutic efficacy of the MMP-12 inhibitor FC-4 on a renal fibrosis model by unilateral ureteral occlusion (UUO). Male Sprague Dawley (SD) rats (180-220 g, n=71) were used in this study. Animals were randomly divided into 4 groups: vehicle group (group-1, n=8), FC-4 2 mg/kg/day group (group-2, n=9), FC-4 6 mg/kg/day group (group-3, n=9), FC-4 20 mg/kg/day group (group-4, n=9). Animals were anesthetized with 2.5% isoflurane inhalation. The left ureter was ligated to create a unilateral ureteral occlusion (UUO) model to induce renal fibrosis. The test article FC-4 was administrated twice a day via oral delivery after modeling for 14 days. Peripheral blood serum was prepared at pre-modeling and day-15 (one day after last dosing). All animals were euthanized and processed for left kidney pathology studies.
Animals: Gender: Male, SD rats, 180-220 g, total 71. Certificate: 11400700272659, Beijing Vital River Laboratory Animal Technology Co., Ltd., China. Animal holding: Animals were maintained in a temperature-controlled environment with a 12 hours light/12 hours dark cycle and free access to food and water. Experimental procedures were performed according to IACUC guidelines in the KCI (SuZhou) Biotech Inc. (KCI) animal research facility. Model creation: Total 36 male SD rats were used in this study. After anesthesia with 2.5% isoflurane inhalation the animal abdomen was opened surgically. The left ureter was exposed and ligated close to the bladder to create the UUO model. After confirming no bleeding, the abdomen wall was closed in layers. The animals were maintained under temperature controlled pad (37° C.) for the recovery from anesthesia, and then were transferred to holding cages with regular food and water.
Experiment grouping: UUO modeling animals were divided into 4 groups randomly as vehicle (group-1, n=9), FC-4 2 mg/kg/day (group-2, n=9), FC-4 6 mg/kg/day (group-3, n=9), FC-4 20 mg/kg/day (group-4, n=9) (Table 4.1). Dosing regimen: All test articles were designed as an oral administration via a gastric perfusion. Test articles were designed to be delivered twice a day starting on the same day of modeling for 14 days (Table 4.1). Endpoints: 1) Blood collection: Peripheral blood was collected from all animals in each group and prepared for serum at pre-modeling and day-15 (one day after last dosing), stored at −80° C. All animals were euthanized according to KCI SOP. After confirming animal death without breath and heart beat, the left kidneys were perfused with cold PBS followed by 10% neutral formalin and collected for further pathology study. 2) Detection of serum BUN and creatinine: The serum BUN and creatinine level were detected with Hitachi 7060 automatic biochemical analyzer and related test kits. 3) Kidney pathology examination: 3a) Kidney H&E staining and analysis: Following KCI's pathologic SOP all left kidneys were fixed in 10% formalin for at least 24 h at room temperature. After fixation, the kidney was cut longitudinally to get the largest surface and dehydrated in graded ethanol, cleared in xylene, and embedded in paraffin. Thin sections (3-μm) were mounted on glass slides, dewaxed, rehydrated to distilled water, and stained with hematoxylin and eosin (H&E). All stained slides were scanned with NanoZoomer Digital Pathology (S210, Hamamaci, Japan) scanner. Semi quantitative evaluation of the degree of tubular epithelial flattening and dilatation were graded from 0-5 according to the percentage of tubular involvement: score 0=no damage; score 1=1-10% damage; score 2=10-25% damage; score 3=25-50% damage; score 4=50-75% damage; score 5=75-100% damage. Semi quantitative evaluation of the tubular necrosis is graded from 0 to 3 according to the percentage of tubular involvement: score 0=no necrosis; score 1=<25% necrosis; score 2=25-50% necrosis; score 3=>50% necrosis. The average of tubular flattening and dilatation and necrosis as the total tubular damage was presented. […]

recombinant human MMP-12 catalytic domain, sequence (P39900 106-263): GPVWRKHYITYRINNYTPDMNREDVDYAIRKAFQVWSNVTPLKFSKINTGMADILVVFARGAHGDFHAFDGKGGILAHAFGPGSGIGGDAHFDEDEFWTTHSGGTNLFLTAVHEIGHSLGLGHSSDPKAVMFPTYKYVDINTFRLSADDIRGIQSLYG

With `Cc1cc(COc2ccc(Sc3ccoc3C3NC(=O)NC3=O)cc2)ccn1` (centres unmarked) [FC-4] as the compound, how does the IC50 ([1]; Table 2 selectivity profile, read-out: MMP-12 activity (IC50)) read?
The IC50 was less than 10 nM.

And the IC50 ([1]; readout at 30 minutes, read-out: MMP-12 IC50)?
The IC50 was less than 10 nM.

And the IC50 [2]?
The IC50 was 100 to 1000 nM.

And the IC50 [3]?
The IC50 was greater than 10000 nM.

What about the IC50 [4] of the same compound?
The IC50 was 10 to 100 nM.

What about the IC50 [5] of the same compound?
Its IC50 is 10 to 100 nM.

And the IC50 [6]?
The IC50 was 1000 to 10000 nM.

And the “Collagen-IV deposition in cortex of left kidney (IHC)” value ([7]; 6 mg/kg/day, p<0.05)?
The value was “significant reduction”.

And the “Collagen-I deposition in cortex of left kidney (IHC)” value ([7]; 20 mg/kg/day)?
Its value is “significant reduction”.

And the “Serum BUN elevation” value ([7]; 20 mg/kg/day p.o. bid, day-15, not statistically significant vs model)?
The value was “slightly limit the BUN elevation”.

What about the “Collagen-IV deposition in cortex of left kidney (IHC)” value ([7]; 20 mg/kg/day, p<0.001) of the same compound?
Its value is “significant reduction”.

What about the “Interstitial fibrosis score in cortex” value ([7]; 20 mg/kg/day, p<0.001) of the same compound?
The value was “significant reduction”.

What about the “Left kidney tubular damage score” value ([7]; 2, 6, 20 mg/kg/day, 20 more effective than 2 mg/kg/day (p<0.01)) of the same compound?
The value was “clear dose dependent effect”.

What about the “Interstitial inflammation in cortex (semi quantitative)” value ([7]; dose dependent efficacy) of the same compound?
The value was “significant reduction”.
